Format in all cases: cell-based
For one assay, the system named is U-87 MG. Briefly: Growth inhibition (cell proliferation assay), U-87 MG. The note with it: read-out: Compound 1 Growth Inhibition IC50.
The test system of a further assay is Phospho-4E-BP1(T46). Briefly: Luminex multiplex assay, Phospho-4E-BP1(T46). The note with it: read-out: p-4E-BP1(T46). The text has this: Determination of Phospho-GSK3β(S9), Phospho-PRAS40(T246) and Phospho-4E-BP1(T46) and the Effect of Compound 1 or Rapamycin.
The multiplex Luminex assay format differs from conventional enzyme-linked immunosorbent assay (ELISA) in that the multiplex capture antibody is attached to a polystyrene bead whereas the ELISA capture antibody is attached to the microplate well. The use of the suspension bead-based technology enables the multiplexing capabilities of the Luminex assays. The xMAP® technology uses 5.6 micron polystyrene microspheres, which are internally dyed with red and infrared fluorophores of differing intensities. Each bead is given a unique number, or bead region, allowing differentiation of one bead from another. Beads covalently bound to different specific antibodies can be mixed in the same assay, utilizing a 96-well microplate format. At the completion of the sandwich immunoassay, beads can be read, using the Luminex 100™ or Luminex 200 detection system, in single-file by dual lasers for classification and quantification of each analyte. The Akt-Pathway Phospho 5-plex kit used was custom made and includes the ability to simultaneously measure p-GSK3β (S9), p-PRAS40(T246), and p-4E-BP1(T46).
Cells were plated at the required density. The cells were treated with either Compound 1 or rapamycin over a range of concentrations for 1 hour in 5% CO2 at 37° C. Compound 1 and rapamycin were used at the same concentrations as for the proliferation assay. As for the cell proliferation assay, a reference standard was included in the assay for PC3 cells and the coefficient of variation for assay of p-GSK3β(S9) was 37.8% (n=30), p-PRAS40(T246) was 27.8% (n=30) and for p4E-BP1(T46) was 13.5% (n=4). For three cell lines (HCT-116, MDA-MB-231 and HT29) in the assay for phosphorylation of GSK3β, PRAS40 and 4E-BP1, IGF-I stimulation (500 ng/mL, recombinant human IGF-I) for the last 10 min of incubation was used. The media was aspirated from the wells and the plate was placed on ice. Then 35 μL of Lysis Buffer was added to each well and incubated on ice for at least 30 minutes. During the incubation, the standard curve for each phosphoprotein was prepared. The standards provided were reconstituted and serial dilutions were prepared according to the manufacturer's instructions. At the end of the cell lysis step, […] of the lysate was transferred to a V-bottom plate and spun at 4° C. at 2000 rpm for 5 minutes. Both the 1× Luminex bead and 1× detector antibody solutions were prepared during this time. The 1× bead solution was vortexed and 25 μL was added into each well of a black round bottom plate. Then 50 μL of the 1× detector antibody was added to each well. Fifty microliters (50 μL) of the prepared standards were added to the designated wells. Then 25 μL of the assay diluent was added to each well designated for the compound-treated cell lysates. At the end of the spin, 25 μL of cell lysate was added to the corresponding wells of the black assay plate. The assay plate was covered with the white plate lid and incubated for 3 hours at room temperature on an orbital shaker.
Approximately 10-15 minutes prior to the end of the first incubation, the secondary antibody solution was prepared according to the vendor's protocol. Goat anti-rabbit R-phycoerythrin red fluorescent protein (RPE) supplied as a 10× concentrate was diluted to generate a 1× goat anti-rabbit RPE stock. The 96-well filter plate was pre-wet with 200 μL of 1× Working wash solution. At the end of the 3 hour incubation, a multichannel pipette was used to transfer the entire contents from each assay well into the wells of the filter plate. The liquid from the wells was removed by aspiration with the vacuum manifold. Then 200 μL of 1× Working wash solution was added into each well. The wash solution was aspirated using the vacuum manifold after 15-30 seconds. This wash step was repeated one time. The bottom of the plate was blotted on clean paper towels to remove residual liquid. […]

The next assay deals with HCT116. Briefly: Growth inhibition (cell proliferation assay), HCT116. The conditions noted are these: read-out: Compound 1 Growth Inhibition IC50.
For the next assay, the system named is A549. Briefly: Growth inhibition (cell proliferation assay), A549. The note with it: read-out: Compound 1 Growth Inhibition IC50.
Another assay relates to Akt(S473). Nature of the assay: Inhibition of Akt(S473) phosphorylation in cell lines. The conditions noted are these: read-out: p-Akt (S473).
A further assay has as its system p70S6K. Nature of the assay: Luminex multiplex assay, p70S6K phosphorylation in cell lysates.

Each structure is given as a SMILES string. Read-outs that look alike come from different tables or passages of the source.

As for `CO[C@H]1CC[C@H](N2C(=O)CNc3ncc(-c4ccc(C(C)(C)O)nc4)nc32)CC1` [Compound 1, 7-(6-(2-hydroxypropan-2-yl)pyridin-3-yl)-1-((1r,4r)-4-methoxycyclohexyl)-3,4-dihydropyrazino-[2,3-b]pyrazin-2(1H)-one], the IC50 was determined as 790 nM in the assay with U-87 MG; 330 nM with Phospho-4E-BP1(T46) (A549); 390 nM with Phospho-4E-BP1(T46) (HCT116, IGF-I stimulation); 70 nM in the assay with Phospho-4E-BP1(T46) (HT-29, IGF-I stimulation); 120 nM in the assay on Phospho-4E-BP1(T46) (MDA-MB-231, IGF-I stimulation); 120 nM in the assay on Phospho-4E-BP1(T46) (NCI-H23). Further, the IC50 is 410 nM in the assay with Phospho-4E-BP1(T46) (PC3); 1340 nM in the assay with Phospho-4E-BP1(T46) (U-87 MG); 370 nM in the assay with HCT116; 320 nM in the assay with A549; 120 nM with Akt(S473) (A549); 100 nM with Akt(S473) (HCT116). In addition, the IC50 came to 250 nM with Akt(S473) (HT-29); 40 nM with Akt(S473) (MDA-MB-231); 100 nM with Akt(S473) (NCI-H23); 10 nM with Akt(S473) (PC3); 150 nM with Akt(S473) (U-87 MG); 191 nM with p70S6K (HCT116 cell line, IGF, read-out: Luminex p70S6K (IGF)). Besides, the IC50 in the assay with p70S6K (U87MG cell line, read-out: Luminex p70S6K) was 103 nM.

Source of the values: US9557338B2 (SIGNAL PHARMACEUTICALS, LLC, priority 2012, dated 2017).
